This is an account of results in US10226440B2, “Oral compositions comprising creatine” (Eddie O'Gorman Ltd, priority 2011, dated 2019).

Molecules are shown by their SMILES.

The data set in a line: HPLC creatine levels after storage of other aqueous gels, jellies, suspensions and water controls. Conditions: 10 g in 50 ml water, stored at 4 deg Celsius and room temperature, after one month. In kind it is physicochemical. How it is done:
A spectrophotometric scan of the colloidal creatine (10 mg ml^−1 dissolved in HPLC mobile phase), the CARG (1:15 dilution in HPLC mobile phase) and the HPLC mobile phase was performed to determine the appropriate detection wavelength for the HPLC assay. The scan was performed over a wavelength range from 190-950 nm. It was decided to use 220 nm as the detection wavelength.
Due to the viscous nature of the CARG it had to be diluted by a factor of 10 at the very least before samples could be injected onto the HPLC. In general a dilution factor of 1/15 was used in the analysis of the samples. The variation in peak area over the course of the experiment was not significant and gave a standard deviation of 1351126.18 (approximately equivalent to 0.13 mg ml^−1 creatine), see Tables 1 and 2.
Two aqueous gels, (A) and (B), were created containing colloidal creatine were made by mixing with water and heating to 55 deg Celsius:
This was stored in a 100 ml plastic dispensing container at room temperature. Creatine levels were measured after 3 months using the above HPLC method and found to have decreased by 22% at 4 deg Celsius and only 5% at room temperature.
Another oral product was made using colloidal creatine in standard commercially available jelly beans reconstituted in water. The concentrations of colloidal creatine per ml of reconstituted jelly bean were 0, 20, 50, 100 and 200 mg/ml. […]

With `CN(CC(=O)O)C(=N)N` [creatine, creatine (2-(methylguanidino)ethanoic acid)], the “loss of creatine content” value came to 90%.
